Data: ChEMBL document CHEMBL3507680, “University of Dundee, Gates Library screen for HepG2 cell viability”

Assay: Human HepG2 cell viability assay in 384 well format
Assay type: toxicity, cell-based
Design: dose 125 nL, time 70.5 hour; concentration not given beside the values
Settings: HepG2 cells, read-out: Inhibition

SMILES | cytotoxicity at 70.5 h
CCCOC1Sc2nnc(C)n2N=C1c1ccccc1 (stereo not given) | -9.6%
CCn1c(O)c(C(C)=O)c2cc(C)ccc21 | -6.19%
CC(=O)c1c(O)n(C)c2ccc(F)cc12 | -4.46%
CCc1nn(-c2cc(Oc3cccc(C)c3)nc(C)n2)c(N)c1C#N | -8.17%
CCOC(=O)c1cnn(-c2cc(Oc3cc(C)ccc3C)ncn2)c1N | -0.831%
O=C(Cn1ccnc1)N1CC[C@H](Oc2cccc(F)c2)[C@@H](O)CC1 | 13%
Cc1nccn1[C@@H]1CC[C@@H](N(C)S(=O)(=O)c2ccccc2F)[C@H]1O | -3.2%
COCC(=O)N1CCC(c2c(C(=O)N(C)C)sc3ncccc23)C1 (stereo not given) | 27.1%
CO[C@@H]1CC[C@@H](NC(=O)CCc2ccc(Cl)cc2)[C@H]1O | -7.81%
CC(=O)N1CCCC1(C(=O)N1CCCC1)c1cnccn1 (stereo not given) | 0.591%
COc1ccccc1CN1CCC(c2nccc(C)n2)C1 (stereo not given) | 27.1%
Cc1ncoc1C(=O)N1CCCC(c2ccc3c(N)nn(C)c3n2)C1 (stereo not given) | -4.28%
CN1CCC(Cc2cnc(CNC(=O)Cc3cccc(F)c3)cn2)CC1 | -2.96%
Cc1occc1C(=O)N1CCCC(C2=Nc3ccccc3S(=O)(=O)N2)C1 (stereo not given) | -5.45%
Cn1cnc(S(=O)(=O)N2CCCC2c2ccnc3nccn23)c1 (stereo not given) | 0.418%
O=C(c1cccc(-n2cnnc2)c1)N1C[C@@H](O)[C@H](N2CCOCC2)C1 | -1.32%
O=C(C1CC1)N1CCCC(C2=Nc3ccccc3S(=O)(=O)N2)C1 (stereo not given) | -4.52%
CC(C)c1cc(C(=O)NCCc2nc(-c3ccncc3)n[nH]2)[nH]n1 | -5.69%
O=C(Cc1ccccc1F)N1CCC[C@@H]1Cn1c(=O)oc2ccccc21 | 6.08%
CN(CCc1ccccc1)Cc1c(C2CC2)[nH]c2ncccc12 | 2.38%
CC(=O)N1CCC(Cc2cccc(-c3ccnn3C)n2)CC1 | -8.71%
O=C(CCn1ccnc1)N1CCC(c2nnc(-c3ccccn3)o2)CC1 | -3.21%
Cc1cc(C)nc(N2CCCC(C)(c3[nH]ncc3C(=O)N(C)C)C2)n1 (stereo not given) | -4.44%
COCCNc1ccc(CC2CCCN(C3CCCC3)C2)nn1 (stereo not given) | -4.76%
CC(C)(C)C(=O)N1CCC(c2cnc(-c3cn[nH]c3)cn2)CC1 | -4.2%
CS(=O)(=O)N1CCN(C(=O)c2cncs2)CC(C(N)=O)C1 (stereo not given) | -5.12%
CN(C(=O)c1ccc(C#N)cc1)c1nnc(C2CCOC2)s1 (stereo not given) | -6.28%
COc1cccc([C@@]2(O)CC[C@@H]3CN(C(=O)c4ccn(C)n4)C[C@@H]32)c1 | -6.49%

SMILES | cytotoxicity at 70.5 h
Cc1nn(C)c(C)c1-c1ccc(=O)n(C(C)C(=O)NC2CCCCC2)n1 (stereo not given) | -17.2%
Cc1cc(-c2cnc(N3CCN(C)CC3)nc2C(C)C)on1 | -3.07%
Cc1cc(-c2cnc(N3CCC(O)CC3)nc2C(C)C)on1 | 20.4%
Cc1cc(-c2cnc(N3CCC(C(N)=O)CC3)nc2C(C)C)on1 | 9.37%
Cc1cc(O)n2nc(C3CCN(C(=O)c4ccccn4)CC3)cc2n1 | 18.6%
CCc1cc(O)n2nc(C3CCN(C(=O)c4cccnc4)CC3)cc2n1 | 21.2%
CCc1nc(-c2cncnc2C2CCNC2)no1 (stereo not given) | 18%
COCC(=O)N1CCCC(C)(c2nncn2C)C1 (stereo not given) | -14.6%
OCCN1CCC(Cc2nccs2)CC1 | 1.19%
O=C(N[C@@H]1CN(CCc2ccc(F)cc2)C[C@H]1O)c1cscn1 | -6.14%
CN(c1ccncn1)C1CC2(CCN(C(=O)c3cccn3C)C2)C1 (stereo not given) | -0.487%
Cc1ncsc1CN1CC[C@H](O)[C@@H](n2cnc3c(N)ncnc32)CC1 | 8.32%
CC1CCCCN1c1nc2c(c(=O)[nH]1)CCN(Cc1ccc(O)cc1)C2 (stereo not given) | -8.85%
CC1CCCCN1c1nc2c(c(=O)[nH]1)CCN(Cc1ccccc1O)C2 (stereo not given) | -7.53%
CN(C)C(=O)CCc1cncc(C2CCCN2Cc2ccccn2)n1 (stereo not given) | -6.05%
Cn1ccc(C(=O)N2CCC(Cc3cccc4ncccc34)CC2)n1 | -6.71%
Cc1cc(N2CCCC(c3n[nH]c4ncccc34)C2)ncn1 (stereo not given) | -4.69%
NC(=O)CN1CCCC1c1csc(Nc2cnccn2)n1 (stereo not given) | -9.23%
Cn1cc(CN2CCC(c3[nH]ncc3S(C)(=O)=O)C2)cn1 (stereo not given) | -2.27%
CN1CCc2nc(C3CCCN(C(=O)CC(C)(C)C)C3)ncc2C1 (stereo not given) | -6.36%
Cc1cnccc1CN1CC[C@@](C)(O)[C@H](Oc2cccc(F)c2)C1 | -1.49%
Cn1cncc1CN1CC[C@](C)(O)[C@@H](Oc2cccc(F)c2)C1 | 13.9%
CO[C@H]1CCN(C(=O)c2ccc3oc(C)cc3c2)C[C@@]12CCCO2 | -5.42%
Cc1nccc(CN2CC[C@@]3(CCCN3Cc3ccccc3)[C@@H](O)C2)n1 | 1.99%
Cc1cccnc1CN1CC[C@H](Oc2cccc(F)c2)[C@@](C)(O)C1 | -0.828%
C[C@]1(O)CN(CCO)CC[C@@H]1Oc1cccc(F)c1 | -2.99%
Cc1ccc(CN2CCCC(c3cncc(C)n3)C2)cn1 (stereo not given) | -2.94%
